From patent US10231939B2, “Hydroxytyrosol and oleuropein compositions for induction of DNA damage, cell death and LSD1 inhibition” (priority 2012, dated 2019)

How the values were obtained:
[1] = test system: LCL cells; test: Cell proliferation (Cell Titer-Blue Assay); type: cell-based, human; conditions: for EC50: Homo sapiens
Description: Human chronic myelogenous leukemia K562 cells (ATCC No. CCL-243), human large B-lymphocyte non-Hodgkin's lymphoma LCL cells, human leukemic monocyte lymphoma U937 cells (ATCC No. CRL-1593.2), human prostate adenocarcinoma PC3 (ATCC No. CRL-1435) and human gastric carcinoma SNU-16 cells (ATCC No. CRL-5974) were maintained in complete-[…] Park Memorial Institute (RPMI) 1640 medium supplemented with 20 mmol/L HEPES (pH 7.4; GIBCO-Invitrogen, Carlsbad, Calif., USA), 10% (v/v) fetal bovine serum (FBS), 2 mmol/L L-glutamine (GIBCO-Invitrogen), and 80 units gentamicin (GIBCO-Invitrogen). Cells were cultured in suspension in a humidified atmosphere of 5% (v/v) CO2 at 37° C. and were maintained in exponential growth phase. For maintenance, cells were passaged twice per week and seeded at ratios 1:10. Cell proliferation was determined using the Cell Titer-Blue Assay kit (Promega, Madison, Wis., USA). Cells were seeded at 10,000 cells per well in black flat bottom 96-well plates (Nalge Nunc, Penfield, N.Y., USA) and treated with serial doses of hydroxytyrosol (0-3200 μM) and oleuropein (0-12800 μM) for 24, 48 and 120 hours at 37° C., 5% (v/v) CO2. Following incubation with the test samples, Cell-Titer Blue reagent (20 μl per 100 μL) was added to each well and mixed gently for 5 sec prior to 4 hr incubation at 37° C. in a humidified atmosphere of 5% CO2. Fluorescence intensity (λex=550 nm and λem=615 nm) was determined using a Perkin Elmer Victor3 multilabel microplate counter (PerkinElmer, Waltham, Mass., USA). Data were expressed as % relative cell viability compared to untreated cells after correction of subtracting the media control fluorescence reading.

[2] = test system: A431 cells; test: Cell proliferation (Cell Titer-Blue Assay); type: cell-based, human; conditions: for EC50: Homo sapiens, A-431
Experimental: (§1) Human epidermal squamous carcinoma A431 cells (ATCC No. CRL-1555), human breast adenocarcinoma MCF7 cells (ATCC No. HTB-22) and brain glioblastoma T98G cells (ATCC No. CRL-1690) obtained from the ATCC were grown as monolayers in a Modified Eagle's Medium (a-MEM) supplemented with 2 mmol/L HEPES (pH 7.4; GIBCO-Invitrogen), 10% (v/v) FBS, 2 mmol/L L-glutamine (GIBCO-Invitrogen), and 80 units gentamicin (GIBCO-Invitrogen). Human epithelial lung adenocarcinoma A549 cells (ATCC No. CCL-185), human liver hepatocellular carcinoma and human colorectal carcinoma HT-29 cells (ATCC No. HTB-38) were obtained from the American Type Culture Collection and grown as monolayers in DMEM (Gibco, Invitrogen) supplemented with 10% (v/v) FBS (In Vitro Technologies), antibody/antimycotic containing 100 U/mL Penicillin, 100 μg/mL Streptomycin, 0.25 μg/mL Amphotericin B (Invitrogen, Carlsbad). All adherent cells were maintained in the exponential growth phase in T75 cm^2 vented culture flasks and passaged by 0.05% (v/v) trypsin-EDTA (GIBCO, Invitrogen) before seeding; at 37° C., 5% (v/v) CO2. Cell proliferation was determined using the Cell Titer-Blue Assay kit (Promega, Madison, Wis., USA). Cells were seeded at 10,000 cells per well in black flat bottom 96-well plates (Nalge Nunc, Penfield, N.Y., USA) and treated with serial doses of hydroxytyrosol (0-3200 μM) and oleuropein (0-12800 μM) for 24, 48 and 120 hours at 37° C., 5% (v/v) CO2. Following incubation with the test samples, Cell-Titer Blue reagent (20 μl per 100 μL) was added to each well and mixed gently for 5 sec prior to 4 hr incubation at 37° C. in a humidified atmosphere of 5% CO2. Fluorescence intensity (λex=550 nm and λem=615 nm) was determined using a Perkin Elmer Victor3 multilabel microplate counter (PerkinElmer, Waltham, Mass., USA). Data were expressed as % relative cell viability compared to untreated cells after correction of subtracting the media control fluorescence reading.

[3] = test system: A549 cells; test: Cell proliferation (Cell Titer-Blue Assay); type: cell-based, human; conditions: for EC50: Homo sapiens
Experimental: as §1

[4] = test system: HT-29 cells; test: Cell proliferation (Cell Titer-Blue Assay); type: cell-based, human; conditions: for EC50: Homo sapiens
Experimental: as §1

[5] = test system: MCF7 cells; test: Cell proliferation (Cell Titer-Blue Assay); type: cell-based, human; conditions: for EC50: Homo sapiens
Experimental: as §1

[6] = test system: T98G cells; test: Cell proliferation (Cell Titer-Blue Assay); type: cell-based, human; conditions: for EC50: Homo sapiens
Experimental: as §1

[7] = Cell viability (Cell-Titer Blue), PBMC; type: cell-based; conditions: human, PBMC (peripheral blood mononuclear cells), hydroxytyrosol 20 or 100 μM
Experimental: Cells were seeded at densities of 7,500 cells/in black flat bottom 96-well plates (Nalge Nunc, Penfield, N.Y., USA) and treated with a dose response of hydroxytyrosol (0-200 μM), oleuropein (0-800 μM), tyrosol (0-1000 μM) and homovanilic acid (0-1000 μM) for 24 hours at 37° C., 5% (v/v) CO2. Cell viability was determined after 24 hour exposure to hydroxytyrosol and measured using the Cell-Titer Blue® Assay kit (Promega, Madison, Wis., USA) according to the manufacturer's instructions. Cell-Titer Blue reagent was added to each well and incubated for 4 hours at 37° C., 5% CO2, before reading fluorescence intensity (550 nm excitation; 615 nm emission) using the Perkin Elmer Victor3 (Perkin Elmer, MA, USA) multi-label plate reader.

SMILES	EC10 (concentration required to reduce the cell viability of the population to 10%) ([1]; 120 hr) [µM]	EC50 ([1]; 24 hr) [µM]	EC50 ([1]; 48 hr) [µM]	EC50 ([1]; 120 hr) [µM]	EC10 (concentration required to reduce the cell viability of the population to 10%) ([2]; A431, 120 hr) [µM]	EC50 ([2]; A431, 24 hr) [µM]	EC50 ([2]; A431, 48 hr) [µM]	EC50 ([2]; A431, 120 hr) [µM]	EC10 (concentration required to reduce the cell viability of the population to 10%) ([3]; A549, 120 hr) [µM]	EC50 ([3]; A549, 24 hr) [µM]	EC50 ([3]; A549, 48 hr) [µM]	EC50 ([3]; A549, 120 hr) [µM]	EC10 (concentration required to reduce the cell viability of the population to 10%) ([4]; HT-29, 120 hr) [µM]	EC50 ([4]; HT-29, 24 hr) [µM]	EC50 ([4]; HT-29, 48 hr) [µM]	EC50 ([4]; HT-29, 120 hr) [µM]	EC50 ([5]; MCF7, 24 hr) [µM]	EC50 ([5]; MCF7, 48 hr) [µM]	EC50 ([5]; MCF7, 120 hr) [µM]	EC10 (concentration required to reduce the cell viability of the population to 10%) ([5]; MCF7, 120 hr) [µM]	further results
OCCc1ccc(O)c(O)c1 [HT, 4-(2-hydroxyethyl)-1,2-benzenediol]	177	370	200	94	1000	870	920	480	320	417	220	160	380	800	230	310	580	900	520	750	EC10 (concentration required to reduce the cell viability of the population to 10%) ([6]; 120 hr): 1120 µM; EC50 ([6]; 24 hr): 1340 µM; EC50 ([6]; 48 hr): 1750 µM; EC50 ([6]; 120 hr): 700 µM; viability at 24 h [7]: 100%
C/C=C1/[C@H](O[C@@H]2O[C@H](CO)[C@@H](O)[C@H](O)[C@H]2O)OC=C(C(=O)OC)[C@H]1CC(=O)OCCc1ccc(O)c(O)c1 [OL, oleuropein]	1240	403	1100	640	4450	1750	4400	2900	1540	1080	1100	1220	2950	1580	2500	1850	4750	3000	4100	4700	EC10 (concentration required to reduce the cell viability of the population to 10%) ([6]; 120 hr): 6220 µM; EC50 ([6]; 24 hr): 2770 µM; EC50 ([6]; 48 hr): 6100 µM; EC50 ([6]; 120 hr): 5500 µM
